In patent US5432042A, “Method for obtaining a printing plate according to the silver salt diffusion transfer process” (Agfa-Gevaert, N.V., priority 1993, dated 1995):

Experiment: pKa of the mercapto group by titration with hydrochloric acid
Type: physicochemical
Details: 0.002 mole/liter in water at pH 11, titrated with hydrochloric acid (0.1 mole/liter)
Procedure: The pKa of the hydrophobizing compounds in connection with the present invention were determined according to the method described in "Ionization Constants of Acids and Bases--A Laboratory Manual" written by Adrien Albert and E. P. Serjeant and Edited by John Wiley & Sons (New York) page 110-112 (1962).
In these particular cases, the hydrophobizing compounds were dissolved in water at pH 11. The concentration of the hydrophobizing compounds was 0.002 mole/liter and the mixture was then titrated with a solution of hydrochloric acid (0.1 mole/liter).

SMILES | pKa
CCCCCCn1nnnc1S [compound 3] | 3.4
CCCCCCCc1nnc(S)o1 [2-mercapto-5-n.heptyl-oxa-3,4-diazole, reference compound] | 4.8
CCCCCCNC(=O)Cn1nnnc1S [compound 1] | 3.3
